Results published in US20190145962A1, “PEPTIDE FOR […] OF AMYLOSPHEROIDS (ASPD), AND […] SCREENING METHOD” (TAO HEALTH LIFE PHARMA CO., LTD., priority 2016, published 2019).

Columns and labels:
[1] = system: binding of ASPD to neurons (synthetic ASPD, primary cultured rat hippocampal neurons); test: Evaluation of ASPD-inhibitory peptides: inhibition of binding of ASPD to cultured neurons (immunofluorescence imaging, titer); format: cell-based; settings: for effect of inhibiting binding of ASPD to neurons: qualitative, evaluation of section 1; for ASPD-binding inhibitory ability (titer) compared with known ASPD neutralizing peptide 01 (HFNW): qualitative comparison with peptide 01, FIG. 3 and FIG. 4
Description: Evaluation of peptides that inhibits binding of ASPD to neurons was performed by the following method.
Step 1: Adding a liquid mixture containing peptide and ASPD, which have been mixed together and then incubated, to cultured mature neurons.
Step 2: Degenerating (immobilizing) the neurons.
Step 3: Immunostaining the neurons and the ASPD, respectively, to perform imaging.
Step 4: Analyzing the image to quantify the ASPD bound to the neurons.
Step 5: Evaluating the peptides using the amount of the ASPD bound and/or an analytical value obtained therefrom.
Steps 1 to 3 were performed as follows:
A liquid mixture of peptide and synthetic ASPD was incubated at 4° C. for 15 minutes to pretreat the ASPD and this liquid mixture was added to primary cultured rat hippocampal neurons cultured in a 96-well plate.
After incubation at 37° C. for 15 minutes in a CO2 incubator, the wells were washed with PBS. Then, 2% paraformaldehyde (50 μl/well) was added thereto for immobilization performed for 20 minutes at 37° C. and further 4% paraformaldehyde (50 μl/well) was added thereto for immobilization performed for 20 minutes at 37° C. After washing and blocking, a primary antibody solution containing anti-ASPD antibody (mASD3) and anti-MAP2 antibody (trade name: sc-20172, manufactured by SANTACRUZ) was added, which then was left overnight. After washing, a secondary antibody solution containing Alexa Fluoro (trademark) 568 anti-mouse antibody (trade name: A11031, manufactured by life technologies), Alexa Fluoro (trademark) 488 anti-rabbit antibody (trade name: A11034, manufactured by life technologies), and DAPI (trade name: D523, manufactured by Dojindo) was added and then fluorescence microscopic observation was performed.
Subsequently, steps 4 to 5 were performed as follows: From the microscopic observation data, a calibration curve as shown in FIG. 2 was drawn, an approximate curve was created within a range where linearity was maintained, and then ED50 was calculated. Using, as an indicator, “titer” that is defined by the ratio of ED50 of the ASPD treated with peptide to ED50 of the ASPD alone, the ASPD-binding inhibitory ability of peptide was evaluated.
Titer=ED50[ASPD+Peptide]/ED50[ASPD]

Synthetic ASPD = molecular target: T1, Synthetic ASPD (Homo sapiens, UniProt P05067); test: Surface plasmon resonance (SPR), synthetic ASPD solid-phased on a chip, peptide as analyte; format: binding; settings: class symbols, key not given; the dissociation constant (KD) was determined but is not given
T1 construct: can be produced by slowly rotating a liquid containing Aß
T1 sequence (P05067 672-713 limits assumed): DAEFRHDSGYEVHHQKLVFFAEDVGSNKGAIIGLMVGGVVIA
Description: Synthetic ASPD were solid-phased on a chip and each peptide shown in Table 3 below was allowed to flow as an analyte. Then the dissociation constant (KD) was determined by surface plasmon resonance (SPR).

| Substance | effect of inhibiting binding of ASPD to neurons [1] | ASPD-binding inhibitory ability (titer) compared with known ASPD neutralizing peptide 01 (HFNW) [1] | Results of SPR (Ability to Bind to ASPD) (Synthetic ASPD) |
| --- | --- | --- | --- |
| HFDW [Peptide 18] | showed the effect of inhibiting binding of ASPD to neurons |  |  |
| HVNW [Peptide 11] |  | comparable to that of known ASPD neutralizing peptide 01 (HFNW) |  |
| HNNW [reference compound] | could not inhibit the binding of ASPD to neurons |  | No binding was found. |
| HYNW [Peptide 08] | showed the effect of inhibiting binding of ASPD to neurons |  |  |
| HFNW [Peptide 01, known ASPD neutralizing peptide, reference compound] | showed the effect of inhibiting binding of ASPD to neurons |  |  |
| HANW [Peptide 10] |  | comparable to that of known ASPD neutralizing peptide 01 (HFNW) |  |
| HPNW [reference compound] | could not inhibit the binding of ASPD to neurons |  | No binding was found. |
| HFRW [Peptide 16] |  | superior |  |
| HHNW [Peptide 05] | showed the effect of inhibiting binding of ASPD to neurons | comparable to that of known ASPD neutralizing peptide 01 (HFNW) |  |
| HFWW [Peptide 15] | showed the effect of inhibiting binding of ASPD to neurons |  |  |
| HFKW [Peptide 22] |  | superior |  |
| HTNW [Peptide 09] | showed the effect of inhibiting binding of ASPD to neurons | comparable to that of known ASPD neutralizing peptide 01 (HFNW) |  |
